Key:
[1] = xn = mol fraction of the nth substance listed; conditions: 101.3 kPa, Liquid
[2] = excess molar enthalpy (molar enthalpy of mixing); xn = mol fraction of the nth substance listed; conditions: 101.3 kPa, Liquid

C=C1CCC2CC1C2(C)C (stereo not drawn) [β-pinene] + CCCO
Conditions	excess molar enthalpy [kcal/mol]	mass density [kg/m3]	speed of sound [m/s]
[1], 283.15 K, x1 = 0.0505	–	818.13	1265.6
[1], 283.15 K, x1 = 0.1024	–	824.2	1272.7
[1], 283.15 K, x1 = 0.2046	–	834.58	1285.3
[1], 283.15 K, x1 = 0.3046	–	843.01	1296
[1], 283.15 K, x1 = 0.405	–	850.35	1305.5
[1], 283.15 K, x1 = 0.5035	–	856.46	1313.7
[1], 283.15 K, x1 = 0.599	–	861.68	1321.2
[1], 283.15 K, x1 = 0.7026	–	866.65	1328.8
[1], 283.15 K, x1 = 0.8026	–	871.06	1336.3
[1], 283.15 K, x1 = 0.8834	–	874.33	1342.6
[1], 283.15 K, x1 = 0.9488	–	–	1348.5
[1], 283.15 K, x1 = 0.9489	–	876.85	–
[1], 283.15 K, x1 = 0.9812	–	878.27	1352.9
[1], 298.15 K, x1 = 0.053	–	806.47	1212.9
[1], 298.15 K, x1 = 0.1036	–	812.35	1219
[1], 298.15 K, x1 = 0.2039	–	822.4	1229.7
[1], 298.15 K, x1 = 0.3038	–	830.81	1239.1
[1], 298.15 K, x1 = 0.3966	–	837.49	1246.9
[1], 298.15 K, x1 = 0.5122	–	844.67	1255.7
[1], 298.15 K, x1 = 0.6005	–	849.44	1261.8
[1], 298.15 K, x1 = 0.699	–	854.2	1268.6
[1], 298.15 K, x1 = 0.793	–	–	1275.4
[1], 298.15 K, x1 = 0.7931	–	858.43	–
[1], 298.15 K, x1 = 0.8937	–	862.59	1283.3
[1], 298.15 K, x1 = 0.9426	–	864.54	1287.9
[1], 298.15 K, x1 = 0.9834	–	866.31	1293.6
[1], 313.15 K, x1 = 0.0514	–	794.24	1160.5
[1], 313.15 K, x1 = 0.1021	–	800.04	1165.7
[1], 313.15 K, x1 = 0.2032	–	810.14	1175
[1], 313.15 K, x1 = 0.307	–	818.69	1183.4
[1], 313.15 K, x1 = 0.405	–	825.65	1190.4
[1], 313.15 K, x1 = 0.5007	–	831.57	1196.5
[1], 313.15 K, x1 = 0.6004	–	837.06	1202
[1], 313.15 K, x1 = 0.7051	–	842.2	1206.4
[1], 313.15 K, x1 = 0.7928	–	846.14	1213.3
[1], 313.15 K, x1 = 0.8931	–	850.44	1222.1
[1], 313.15 K, x1 = 0.9407	–	852.42	1225.6
[1], 313.15 K, x1 = 0.9786	–	854.11	1228.9
[2], 283.15 K, x1 = 0.067	0.0146	–	–
[2], 283.15 K, x1 = 0.135	0.0304	–	–
[2], 283.15 K, x1 = 0.263	0.0564	–	–
[2], 283.15 K, x1 = 0.38	0.0755	–	–
[2], 283.15 K, x1 = 0.488	0.0891	–	–
[2], 283.15 K, x1 = 0.585	0.0963	–	–
[2], 283.15 K, x1 = 0.677	0.0994	–	–
[2], 283.15 K, x1 = 0.764	0.097	–	–
[2], 283.15 K, x1 = 0.855	0.086	–	–
[2], 283.15 K, x1 = 0.926	0.0674	–	–
[2], 283.15 K, x1 = 0.97	0.0473	–	–
[2], 298.15 K, x1 = 0.067	0.0213	–	–
[2], 298.15 K, x1 = 0.135	0.0423	–	–
[2], 298.15 K, x1 = 0.263	0.0803	–	–
[2], 298.15 K, x1 = 0.38	0.109	–	–
[2], 298.15 K, x1 = 0.488	0.129	–	–
[2], 298.15 K, x1 = 0.585	0.14	–	–
[2], 298.15 K, x1 = 0.677	0.147	–	–
[2], 298.15 K, x1 = 0.764	0.14	–	–
[2], 298.15 K, x1 = 0.855	0.127	–	–
[2], 298.15 K, x1 = 0.926	0.0978	–	–
[2], 298.15 K, x1 = 0.97	0.0626	–	–
[2], 313.15 K, x1 = 0.067	0.0277	–	–
[2], 313.15 K, x1 = 0.135	0.0581	–	–
[2], 313.15 K, x1 = 0.263	0.11	–	–
[2], 313.15 K, x1 = 0.38	0.15	–	–
[2], 313.15 K, x1 = 0.488	0.177	–	–
[2], 313.15 K, x1 = 0.585	0.192	–	–
[2], 313.15 K, x1 = 0.677	0.196	–	–
[2], 313.15 K, x1 = 0.764	0.188	–	–
[2], 313.15 K, x1 = 0.855	0.163	–	–
[2], 313.15 K, x1 = 0.926	0.124	–	–
[2], 313.15 K, x1 = 0.97	0.0791	–	–

— the NIST ThermoML archive (doi:10.1021/je050006+)
